Data on 3 molecules can be found in US20040072903A1, “Carboxyalkylether-acat inhibitors combinations” (priority 2002, published 2004).

In one experiment the test system is Chow-Fed Rat. As to the kind of experiment: Effects of Treatment on Lipid and Lipoprotein Parameters in the Chow-Fed Rat. Type of experiment: in vivo. More on the design: TG (Triglyceride) / Cholesterol (Total cholesterol) / VLDL (Very low-density cholesterol) / LDL (Low-density cholesterol) / HDL (High-density cholesterol): unit not given here.
A further experiment deals with man. As to conditions: in man, Helsinki Heart Study; cited from earlier work.

In the case of `CC(C)c1cc(C(C)C)c(CC(=O)NS(=O)(=O)Oc2c(C(C)C)cccc2C(C)C)c(C(C)C)c1` [Avisimbe], in the experiment with Chow-Fed Rat (10 mg/kg), the “Cholesterol (Total cholesterol)” value is on record as 36 ± 2.3; the “HDL (High-density cholesterol)” value is 19.5 ± 1.7; the “HDL/VLDL + LDL (HDL divided by the sum of VLDL and LDL)” value was determined as 1.2 ± 0.1; the “LDL (Low-density cholesterol)” value turned out to be 12.0 ± 1.1. In the experiment on Chow-Fed Rat (10 mg/kg), the “TG (Triglyceride)” value came to 85 ± 16.8 and the “VLDL (Very low-density cholesterol)” value was found to be 3.9 ± 0.7. For the same molecule, in the experiment with Chow-Fed Rat (30 mg/kg), the “Cholesterol (Total cholesterol)” value came to 37 ± 2.9; the “HDL (High-density cholesterol)” value came out at 22.2 ± 1.8; the “HDL/VLDL + LDL (HDL divided by the sum of VLDL and LDL)” value amounted to 1.6 ± 0.1; the “LDL (Low-density cholesterol)” value turned out to be 12.0 ± 0.8. Besides, in the experiment with Chow-Fed Rat (30 mg/kg), the “TG (Triglyceride)” value came out at 65 ± 12.9 and the “VLDL (Very low-density cholesterol)” value is listed as 2.1 ± 0.6.

For the molecule `Cc1ccc(C)c(OCCCC(C)(C)C(=O)O)c1` [gemfibrozil], in the experiment on man, the HDL-C result is reported as “increased”, the LDL-C result is “decreased” and the “incidence of coronary artery disease” value is given as “reduced”.

Consider `CC(C)(CCCCOCCCCC(C)(C)C(=O)O)C(=O)O` [CI-1027], for which, in the experiment on Chow-Fed Rat (3 mg/kg), the “Cholesterol (Total cholesterol)” value is given as 40 ± 1.4; the “HDL (High-density cholesterol)” value is on record as 28 ± 1.0; the “HDL/VLDL + LDL (HDL divided by the sum of VLDL and LDL)” value came to 2.4 ± 0.1; the “LDL (Low-density cholesterol)” value is 9.0 ± 0.5. For the same molecule, in the experiment with Chow-Fed Rat (3 mg/kg), the “TG (Triglyceride)” value is given as 70 ± 2.8 and the “VLDL (Very low-density cholesterol)” value is given as 2.7 ± 0.3. In addition, in the experiment on Chow-Fed Rat (10 mg/kg), the “Cholesterol (Total cholesterol)” value turned out to be 89 ± 8.5; the “HDL (High-density cholesterol)” value came out at 76 ± 7.1; the “HDL/VLDL + LDL (HDL divided by the sum of VLDL and LDL)” value was determined as 6.8 ± 0.7; the “LDL (Low-density cholesterol)” value is 9.1 ± 1.1. Also, in the experiment on Chow-Fed Rat (10 mg/kg), the “TG (Triglyceride)” value is 60 ± 8.8 and the “VLDL (Very low-density cholesterol)” value is listed as 2.8 ± 0.8. Further, in the experiment with Chow-Fed Rat (30 mg/kg), the “Cholesterol (Total cholesterol)” value is on record as 119 ± 21; the “HDL (High-density cholesterol)” value was 100 ± 14.8; the “HDL/VLDL + LDL (HDL divided by the sum of VLDL and LDL)” value was found to be 9.4 ± 2.7; the “LDL (Low-density cholesterol)” value is given as 17.6 ± 6.1. In the experiment on Chow-Fed Rat (30 mg/kg), the “TG (Triglyceride)” value came to 27 ± 2.0 and the “VLDL (Very low-density cholesterol)” value turned out to be 0.7 ± 0.2.
